Source: the supplement of paper PMC10307832

Tests used:
Assay in all cases: relative viability (nuclei count vs DMSO), 5 days (fraction); higher = more cells survive
Ibrutinib + Vorinostat = compound: C=CC(=O)N1CCC[C@@H](n2nc(-c3ccc(Oc4ccccc4)cc3)c3c(N)ncnc32)C1 [Ibrutinib] + O=C(CCCCCCC(=O)Nc1ccccc1)NO [Vorinostat] (partner 1 µM)
Method in brief: (§1)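 Nuclei were stained with Hoechst during a one-step fixation (final 0.05% Triton X-100, 1% formaldehyde, 1 ug/ml Hoechst) carried out 5 days after dosing, then counted on 4× images. The cells, lung cancer lines in 1536-well plates, had been dosed by pin tool the day after seeding with one drug alone or a fixed anchor-drug dose plus five library-drug doses (not always all listed) in √10 steps. Relative viability is the nuclei count in treated wells divided by that in vehicle wells, and each value is the median of duplicate plates.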

PAC-1 + Olaparib = compound: C=CCc1cccc(/C=N/NC(=O)CN2CCN(Cc3ccccc3)CC2)c1O [PAC-1] + O=C(c1cc(Cc2n[nH]c(=O)c3ccccc23)ccc1F)N1CCN(C(=O)C2CC2)CC1 [Olaparib] (partner 8 µM)
Method in brief: as §1

PAC-1 + Vorinostat = compound: C=CCc1cccc(/C=N/NC(=O)CN2CCN(Cc3ccccc3)CC2)c1O [PAC-1] + O=C(CCCCCCC(=O)Nc1ccccc1)NO [Vorinostat] (partner 1 µM)
Method in brief: as §1

BMX-IN-1 + Vorinostat = compound: C=CC(=O)Nc1cc(-n2c(=O)ccc3cnc4ccc(-c5ccc(NS(C)(=O)=O)cc5)cc4c32)ccc1C [BMX-IN-1] + O=C(CCCCCCC(=O)Nc1ccccc1)NO [Vorinostat] (partner 1 µM)
Method in brief: as §1

Cell Line | relative viability (Ibrutinib + Vorinostat; first compound 0.005 µM) | relative viability (Ibrutinib + Vorinostat; first compound 0.01581 µM) | relative viability (Ibrutinib + Vorinostat; first compound 0.05 µM) | relative viability (Ibrutinib + Vorinostat; first compound 0.5 µM) | relative viability (PAC-1 + Olaparib; first compound 0.02 µM) | relative viability (PAC-1 + Olaparib; first compound 0.06325 µM) | relative viability (PAC-1 + Olaparib; first compound 0.2 µM) | relative viability (PAC-1 + Olaparib; first compound 2 µM) | relative viability (PAC-1 + Vorinostat; first compound 0.02 µM) | relative viability (PAC-1 + Vorinostat; first compound 0.06325 µM) | relative viability (PAC-1 + Vorinostat; first compound 0.2 µM) | relative viability (PAC-1 + Vorinostat; first compound 2 µM) | relative viability (BMX-IN-1 + Vorinostat; first compound 0.02 µM) | relative viability (BMX-IN-1 + Vorinostat; first compound 0.2 µM) | relative viability (BMX-IN-1 + Vorinostat; first compound 0.6325 µM) | relative viability (BMX-IN-1 + Vorinostat; first compound 2 µM) | relative viability (Ibrutinib + Vorinostat; first compound 0.1581 µM)
IA-LM | 1.04 | 0.864 | 0.918 | 0.822 | 0.806 | 0.964 | 0.952 | 0.833 | 1.15 | 0.915 | 0.879 | 0.961 | 0.797 | 0.807 | 1.03 | 0.722 | –
LC-2-ad | 0.74 | 0.665 | 0.706 | 0.775 | 0.704 | 0.712 | 0.35 | 0.635 | 0.743 | 0.632 | 0.691 | 0.698 | 0.74 | 0.766 | 0.674 | 0.783 | 0.802
LCLC-97TM1 | 0.702 | 0.798 | 0.718 | 0.691 | 0.364 | 0.524 | – | 0.338 | 0.776 | 0.805 | – | 0.761 | 0.724 | 1.08 | 1.04 | 0.842 | 0.897
LCLC-103H | 0.776 | 0.878 | 0.777 | 0.754 | 0.771 | 0.824 | 0.761 | 0.745 | 0.854 | 0.864 | 0.759 | 0.826 | 0.724 | 0.823 | 0.882 | 0.842 | 0.782
LK-2 | 0.236 | 0.234 | 0.266 | 0.177 | 0.774 | 0.704 | 0.673 | 0.837 | 0.317 | 0.306 | 0.301 | 0.58 | 0.289 | 0.151 | 0.282 | 0.365 | 0.293
LOU-NH91 | 0.818 | 0.782 | 0.749 | 0.684 | 0.884 | 0.908 | 0.92 | 0.879 | 0.876 | 0.937 | 0.897 | 0.887 | – | 0.939 | 1.05 | 0.915 | 0.88
LU99A | 0.369 | 0.512 | 0.486 | 0.439 | 0.247 | 0.282 | 0.271 | 0.257 | 0.502 | 0.448 | 0.429 | 0.502 | 0.501 | 0.421 | 0.669 | 0.612 | 0.564
LXF-289 | 0.943 | 0.798 | 0.695 | 0.749 | 1.07 | 1.03 | 1.05 | 1.03 | 0.793 | 0.765 | 0.731 | 0.732 | 0.824 | 0.876 | 0.912 | 0.882 | 0.796
NCI-H23 | 0.467 | 0.527 | 0.514 | 0.594 | 0.28 | 0.284 | 0.313 | 0.352 | 0.692 | 0.567 | 0.651 | 0.751 | 0.654 | 0.728 | 0.602 | 0.564 | 0.605
NCI-H322M | 0.74 | 0.915 | 0.79 | 0.802 | 0.762 | 0.782 | 0.74 | 0.834 | 0.749 | 0.907 | 1.04 | 0.828 | 0.872 | 0.983 | 1.01 | 0.876 | 0.571
NCI-H358 | 0.606 | 0.598 | – | 0.283 | 0.581 | 0.827 | 0.569 | 0.37 | 0.645 | 0.665 | 0.706 | 0.674 | 0.816 | 0.811 | 0.788 | 0.652 | 0.809
NCI-H441 | 0.789 | 0.694 | 1.05 | 0.919 | 0.468 | 0.69 | 0.483 | 0.491 | 0.87 | 1.05 | 0.82 | 0.761 | 0.691 | 1.03 | 0.903 | 0.778 | 0.823
NCI-H460 | 0.855 | 0.667 | 0.695 | 0.781 | 0.4 | 0.457 | 0.466 | 0.369 | 0.755 | 0.75 | 0.642 | 0.707 | 1.05 | – | 1.11 | 0.782 | 0.794
NCI-H520 | 0.821 | 0.665 | 0.715 | 0.719 | 0.382 | 0.383 | 0.361 | 0.33 | 0.57 | 0.722 | 0.687 | 0.678 | 0.8 | 0.718 | 0.666 | 0.696 | 0.757
NCI-H522 | 0.848 | 0.764 | – | 0.815 | 0.591 | 0.643 | 0.619 | 0.626 | 0.902 | 0.846 | 0.941 | 0.862 | 0.979 | 0.786 | 0.832 | 0.968 | 0.808
NCI-H596 | 0.468 | 0.628 | 0.501 | 0.572 | 0.633 | 0.715 | 0.607 | 0.665 | 0.619 | 0.603 | 0.643 | 0.741 | 0.685 | 0.84 | 0.67 | 0.666 | 0.57
NCI-H647 | 0.569 | 0.472 | 0.695 | 0.67 | 0.616 | 0.492 | 0.544 | 0.236 | 0.28 | 0.67 | 0.706 | 0.514 | 0.709 | 0.725 | 0.663 | 0.495 | 0.645
NCI-H650 | 0.36 | 0.389 | 0.413 | 0.45 | 0.328 | 0.41 | 0.387 | 0.381 | 0.494 | 0.36 | 0.442 | 0.395 | 0.475 | 0.52 | 0.48 | 0.438 | 0.578
NCI-H1299 | – | – | – | – | 0.947 | 0.933 | 0.937 | 0.895 | – | – | – | – | – | – | – | – | –
NCI-H1703 | – | – | – | – | 0.376 | 0.401 | 0.388 | 0.341 | – | – | – | – | – | – | – | – | –
NCI-H1792 | – | – | – | – | 0.305 | 0.383 | 0.0039 | 0.454 | – | – | – | – | – | – | – | – | –
